# Data published in PubChem BioAssay (NCI).
#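 Interpolation was linear, between the two tested concentrations surrounding the appropriate level; five concentrations were tested over 48 hours in 96-well plates. Here, GI50 denotes the concentration required for 50% inhibition of growth. TGI is the concentration that stops growth completely.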
# Columns and labels:
# Test in all cases: growth of human tumour cells (NCI), 48 h
# M14 melanoma = test system: M14 melanoma
# SF-295 CNS = test system: SF-295 CNS
# SK-MEL-28 melanoma = test system: SK-MEL-28 melanoma
# BT-549 breast = test system: BT-549 breast
# RXF 393 renal = test system: RXF 393 renal
# SN12C renal = test system: SN12C renal
# MDA-MB-435 = test system: MDA-MB-435
# IGROV1 ovarian = test system: IGROV1 ovarian
# HS 578T breast = test system: HS 578T breast
# HOP-92 NSCLC = test system: HOP-92 NSCLC
# HL-60(TB) leukemia = test system: HL-60(TB) leukemia
# HCT-15 colon = test system: HCT-15 colon
# COLO 205 colon = test system: COLO 205 colon
# KM12 colon = test system: KM12 colon
# MALME-3M melanoma = test system: MALME-3M melanoma
# T-47D breast = test system: T-47D breast
# SK-MEL-2 melanoma = test system: SK-MEL-2 melanoma
# SF-268 CNS = test system: SF-268 CNS
# 786-0 renal = test system: 786-0 renal
# NCI/ADR-RES ovarian = test system: NCI/ADR-RES ovarian
# K-562 leukemia = test system: K-562 leukemia
# ACHN renal = test system: ACHN renal
# OVCAR-5 ovarian = test system: OVCAR-5 ovarian
# MDA-MB-231 breast = test system: MDA-MB-231 breast
# HT29 colon = test system: HT29 colon
# TK-10 renal = test system: TK-10 renal
# SNB-75 CNS = test system: SNB-75 CNS
# SK-MEL-5 melanoma = test system: SK-MEL-5 melanoma
# DU-145 prostate = test system: DU-145 prostate
# PC-3 prostate = test system: PC-3 prostate
# MOLT-4 leukemia = test system: MOLT-4 leukemia
# UACC-257 melanoma = test system: UACC-257 melanoma
# SR leukemia = test system: SR leukemia
# SNB-19 CNS = test system: SNB-19 CNS
# NCI-H23 lung = test system: NCI-H23 lung
# NCI-H226 lung = test system: NCI-H226 lung
# NCI-H460 lung = test system: NCI-H460 lung
# HCC-2998 colon = test system: HCC-2998 colon
# SK-OV-3 ovarian = test system: SK-OV-3 ovarian
# HCT-116 colon = test system: HCT-116 colon
# HOP-62 NSCLC = test system: HOP-62 NSCLC
# A498 renal = test system: A498 renal
# SF-539 CNS = test system: SF-539 CNS
# OVCAR-8 ovarian = test system: OVCAR-8 ovarian
# EKVX NSCLC = test system: EKVX NSCLC
# OVCAR-4 ovarian = test system: OVCAR-4 ovarian
# SW-620 colon = test system: SW-620 colon
# U251 CNS = test system: U251 CNS
# UO-31 renal = test system: UO-31 renal
# A549 NSCLC = test system: A549 NSCLC
# CCRF-CEM leukemia = test system: CCRF-CEM leukemia
# CAKI-1 renal = test system: CAKI-1 renal
# MCF7 breast = test system: MCF7 breast
# OVCAR-3 ovarian = test system: OVCAR-3 ovarian
# UACC-62 melanoma = test system: UACC-62 melanoma
# LOX IMVI melanoma = test system: LOX IMVI melanoma
# NCI-H522 lung = test system: NCI-H522 lung
# RPMI-8226 leukemia = test system: RPMI-8226 leukemia
smiles,measurement,setting,value
COC(=O)c1cc(C)[nH]c2c(C)cc3nc4ccccc4c3c12,GI50,M14 melanoma,11 µM
same,TGI,M14 melanoma,23.7 µM
same,GI50,SF-295 CNS,3.41 µM
same,TGI,SF-295 CNS,14.1 µM
same,GI50,SK-MEL-28 melanoma,14.6 µM
same,TGI,SK-MEL-28 melanoma,28.3 µM
same,GI50,BT-549 breast,12.1 µM
same,TGI,BT-549 breast,25 µM
same,GI50,RXF 393 renal,11.6 µM
same,TGI,RXF 393 renal,25 µM
same,GI50,SN12C renal,11.7 µM
same,TGI,SN12C renal,30.8 µM
same,GI50,MDA-MB-435,9.01 µM
same,TGI,MDA-MB-435,22.2 µM
same,GI50,IGROV1 ovarian,6.01 µM
same,TGI,IGROV1 ovarian,23.9 µM
same,GI50,HS 578T breast,15 µM
same,TGI,HS 578T breast,> 100 µM
same,GI50,HOP-92 NSCLC,5.85 µM
same,TGI,HOP-92 NSCLC,20.7 µM
same,GI50,HL-60(TB) leukemia,7.34 µM
same,TGI,HL-60(TB) leukemia,55.3 µM
same,GI50,HCT-15 colon,5.19 µM
same,TGI,HCT-15 colon,22.2 µM
same,GI50,COLO 205 colon,12.7 µM
same,TGI,COLO 205 colon,25.8 µM
same,GI50,KM12 colon,4.94 µM
same,TGI,KM12 colon,18.1 µM
same,GI50,MALME-3M melanoma,14.7 µM
same,TGI,MALME-3M melanoma,28.5 µM
same,GI50,T-47D breast,3.2 µM
same,TGI,T-47D breast,12.9 µM
same,GI50,SK-MEL-2 melanoma,13.2 µM
same,TGI,SK-MEL-2 melanoma,28.8 µM
same,GI50,SF-268 CNS,11 µM
same,TGI,SF-268 CNS,23.8 µM
same,GI50,786-0 renal,7.1 µM
same,TGI,786-0 renal,21.4 µM
same,GI50,NCI/ADR-RES ovarian,3.87 µM
same,TGI,NCI/ADR-RES ovarian,18 µM
same,GI50,K-562 leukemia,4.34 µM
same,TGI,K-562 leukemia,46.1 µM
same,GI50,ACHN renal,11.6 µM
same,TGI,ACHN renal,25.4 µM
same,GI50,OVCAR-5 ovarian,15.6 µM
same,TGI,OVCAR-5 ovarian,32.7 µM
same,GI50,MDA-MB-231 breast,2.44 µM
same,TGI,MDA-MB-231 breast,10.5 µM
same,GI50,HT29 colon,3.11 µM
same,TGI,HT29 colon,13.5 µM
same,GI50,TK-10 renal,5.73 µM
same,TGI,TK-10 renal,19.5 µM
same,GI50,SNB-75 CNS,8.5 µM
same,TGI,SNB-75 CNS,21 µM
same,GI50,SK-MEL-5 melanoma,5.97 µM
same,TGI,SK-MEL-5 melanoma,19.2 µM
same,GI50,DU-145 prostate,11.8 µM
same,TGI,DU-145 prostate,24.7 µM
same,GI50,PC-3 prostate,4.86 µM
same,TGI,PC-3 prostate,18.8 µM
same,GI50,MOLT-4 leukemia,4.83 µM
same,TGI,MOLT-4 leukemia,42.2 µM
same,GI50,UACC-257 melanoma,16.1 µM
same,TGI,UACC-257 melanoma,30 µM
same,GI50,SR leukemia,6.13 µM
same,TGI,SR leukemia,58.2 µM
same,GI50,SNB-19 CNS,12.7 µM
same,TGI,SNB-19 CNS,29.5 µM
same,GI50,NCI-H23 lung,7.54 µM
same,TGI,NCI-H23 lung,26.4 µM
same,GI50,NCI-H226 lung,14 µM
same,TGI,NCI-H226 lung,28.9 µM
same,GI50,NCI-H460 lung,4.25 µM
same,TGI,NCI-H460 lung,22.5 µM
same,GI50,HCC-2998 colon,8.99 µM
same,TGI,HCC-2998 colon,23.9 µM
same,GI50,SK-OV-3 ovarian,13.4 µM
same,TGI,SK-OV-3 ovarian,26.5 µM
same,GI50,HCT-116 colon,10.2 µM
same,TGI,HCT-116 colon,23 µM
same,GI50,HOP-62 NSCLC,12.4 µM
same,TGI,HOP-62 NSCLC,25.1 µM
same,GI50,A498 renal,6.07 µM
same,TGI,A498 renal,21.2 µM
same,GI50,SF-539 CNS,12.4 µM
same,TGI,SF-539 CNS,26.4 µM
same,GI50,OVCAR-8 ovarian,6.35 µM
same,TGI,OVCAR-8 ovarian,19 µM
same,GI50,EKVX NSCLC,6.5 µM
same,TGI,EKVX NSCLC,20.5 µM
same,GI50,OVCAR-4 ovarian,12.5 µM
same,TGI,OVCAR-4 ovarian,25.3 µM
same,GI50,SW-620 colon,7.91 µM
same,TGI,SW-620 colon,27 µM
same,GI50,U251 CNS,10.7 µM
same,TGI,U251 CNS,23.9 µM
same,GI50,UO-31 renal,4.46 µM
same,TGI,UO-31 renal,19.1 µM
same,GI50,A549 NSCLC,10.2 µM
same,TGI,A549 NSCLC,22.8 µM
same,GI50,CCRF-CEM leukemia,5.23 µM
same,TGI,CCRF-CEM leukemia,86.4 µM
same,GI50,CAKI-1 renal,2.89 µM
same,TGI,CAKI-1 renal,13.4 µM
same,GI50,MCF7 breast,8.01 µM
same,TGI,MCF7 breast,22.8 µM
same,GI50,OVCAR-3 ovarian,10.3 µM
same,TGI,OVCAR-3 ovarian,22.1 µM
same,GI50,UACC-62 melanoma,5.99 µM
same,TGI,UACC-62 melanoma,21.1 µM
same,GI50,LOX IMVI melanoma,5.38 µM
same,TGI,LOX IMVI melanoma,32.2 µM
same,GI50,NCI-H522 lung,3.23 µM
same,TGI,NCI-H522 lung,14.5 µM
same,GI50,RPMI-8226 leukemia,5.75 µM
same,TGI,RPMI-8226 leukemia,46.9 µM
